Source: US9274101B2 (BIOLOG, Inc., priority 2001, dated 2016)
Where a SMILES comes first, the peptide text is derived from it.

How the values were obtained:
[1] = system: E. coli MG1655; type: cell-based, Escherichia coli
[2] = system: ten strains of E. coli; type: cell-based, Escherichia coli
[3] = system: E. coli MG1655; type: cell-based, Escherichia coli; remark: listed apart in the source
[4] = system: DMSO-differentiated HL-60 cells; assay: Energy use by DMSO-differentiated HL-60 cells; type: cell-based, human; conditions: Homo sapiens, HL-60, 24 h, read-out: Energy Use by DMSO-Differentiated HL-60 Cells
Method: In this Example, methods for testing in vitro-differentiated cells for their ability to use multiple energy sources are described. Prior to differentiation, HL-60 cells were cultured as described in Example 27. DMSO-induced differentiation (Odani et al., Res. Commun. Mol. Pathol. Pharmacol. 108:381-391 [2000]; and Yamaguchi et al., Biol. Pharm. Bull. 20:943-947 [1997]) was accomplished by incubation of the cells in the presence of 1.25% DMSO for 3 days.
After washing, HL-60 cells were resuspended in DME-R. An aliquot of the cell suspension was counted by trypan blue exclusion and the cell density was adjusted to 6.67×10^5/mL. Fifty μL of DME-R were added to each well of the appropriate number of half area, 96-well plates, followed by 25 μL of the appropriate dilution of each test energy source. Stocks of 133 mM of each test chemical were prepared in tissue culture grade water, sterile filtered, and dilutions were prepared in a master plate so that, upon dilution into a half-area 96-well microtiter plate to a total well volume of 150 μL, the final concentrations would be 0.033 to 20 mM. Negative control wells received 25 μL of tissue culture grade water. The cells were plated at a volume of 75 μL/well, giving a final cell density of 5×10^4/well. For each plate containing energy sources and cells, a second, control plate containing only energy sources was prepared with the same total volume of liquid (148 μL/well). Plates were incubated at 5% CO2, 90-100% humidity, and 37° C. for 24 hours prior to addition of the MTS/MPMS calorimetric reagent (7.5 μL/well). The color formed in each well 24 hours after addition of the colorimetric reagent, was measured with a plate reader at 490 nm with a reference wavelength of 650 nm. OD values from the control plate were subtracted from the OD values obtained with cells prior to normalizing the data to % negative control (cells without added energy source).

[5] = system: Undifferentiated HL-60 cells; assay: Energy use by undifferentiated HL-60 cells; type: cell-based, human; conditions: Homo sapiens, HL-60, 24 h, read-out: Energy Use by Undifferentiated HL-60 Cells
[6] = system: HepG2 cells; assay: HepG2 cells on flat bottom plastic wells, energy sources at a range of concentrations; type: cell-based, human; conditions: Homo sapiens, HepG2, 72 h, read-out: HepG2 Cells Responses After 72 hours in Culture and a 4 hour Color Development Period
Method: In this Example, methods for testing adherent cells for their ability to use multiple carbon sources are described. The human hepatocellular carcinoma cell line known as HepG2 (Knowles et al., Science, 209:497-499 [1980]) was chosen for this experiment. However, this application is not intended to be limited to the use of HepG2 cells, hepatocytes, carcinoma cells or even human cells.
HepG2 cells were grown in Falcon tissue culture flasks with vented tops. The culture medium used was Minimal Essential medium (MEM, Invitrogen 11095) with 1 g/L glucose, 2 mM L-glutamine, 2.2 g/L sodium bicarbonate, 10 mg/L phenol red, and supplemented with 0.1 mM Nonessential Amino Acids, 1 mM sodium pyruvate, 50 U/mL penicillin, 50 μg/mL streptomycin, and 10% (v/v) heat inactivated fetal bovine serum (HI FBS, Invitrogen 16140). The cells were seeded at 2×10^4/cm^2 and used 3 days after initiation of culture. During all incubations, the cells were kept in an atmosphere of 5% CO2, 90-100% humidity, and 37° C. Cells were harvested by trypsinization for 3 minutes in 0.25% trypsin-1 mM EDTA and resuspended in an equal volume of culture medium. A viable cell count was obtained by trypan blue exclusion and an appropriate volume of the cell suspension (to have 33% more viable cells than was sufficient for the experiment) was placed in a polypropylene centrifuge tube. Cells were pelleted by centrifugation at 350×g for 10 minutes at room temperature, resuspended in Dulbecco's Phosphate Buffered Saline (D-PBS, Invitrogen 14040) and centrifuged a second time. Cells were then resuspended to two-thirds the final volume needed in Dulbecco' ? s Modified Eagle's Medium (DME, Sigma D5030) containing 10% HI FBS and penicillin-streptomycin but without glucose, L-glutamine, sodium pyruvate, and phenol red. An aliquot was counted by trypan blue exclusion and the cell density was adjusted to 1.28×10^5/mL. Cells were plated in 100 μL/well in wells of standard, 96-well plates (4×10^4 cells/cm^2) and allowed to adhere overnight prior to addition of test chemicals.
For assay, the culture medium was aspirated, the wells were washed once with D-PBS and 170 μL of DME were added to each well, followed by 30 μL of the appropriate dilution of each test energy source. Stocks of 133 mM of each test chemical were prepared in tissue culture grade water, sterile filtered, and dilutions were prepared in a master plate so that, upon dilution into a regular 96-well MICROPLATE a total well volume of 200 μL, the final concentrations would be 0.033 to 20 mM. Negative control wells received 30 μL of tissue culture grade water. For each plate containing energy sources and cells, a second, control plate containing only energy sources was prepared. Plates were incubated at 5% CO2, 90-100% humidity, and 37° C. for 48 to 72 hours prior to addition of the MTS/PMS colorometric reagent (10 μL/well). The color formed in each well 4-24 hours after addition of the calorimetric reagent, was measured with a plate reader at 490 nm with a reference wavelength of 650 nm. OD values from the control plate were subtracted from the OD values obtained with cells prior to normalizing the data to % negative control (cells without added energy source).

[7] = system: HL-60 cells; assay: HL-60 responses to selected compounds at a range of concentrations; type: cell-based, human
Method: In this Example, methods for testing unattached cells for their ability to use various concentrations of selected carbon sources are described. The carbon sources used in this Example were identified by the methods disclosed in Example 27. Similarly, HL-60 cells were cultured as described in Example 27.
After washing, HL-60 cells were resuspended in DME-R. An aliquot of the cell suspension was counted by trypan blue exclusion and the cell density was adjusted to 6.67×10^5/mL. Fifty μL of DME-R were added to each well of the appropriate number of half area, 96-well plates, followed by 23 μL of the appropriate dilution of each test energy source. Stocks of 133 mM of each test chemical were prepared in tissue culture grade water, sterile filtered, and dilutions were prepared in a master plate so that, upon dilution in a total volume of 150 μL, the final concentrations would be 0.033 to 20 mM. Negative control wells received 23 μL of tissue culture grade water. The cells were plated at a volume of 75 μL/well, giving a final cell density of 5×10^4/well. For each plate containing energy sources and cells, a second, control plate containing only energy sources was prepared. Plates were incubated at 5% CO2, 90-100% humidity, and 37° C. for 24 hours prior to addition of the MTS/MPMS colorometric reagent (7.5 μL/well). The color formed in each well after an additional 24 hour incubation period, was measured on a plate reader at 490 nm with a reference wavelength of 650 nm. OD values from the control plate were subtracted from the OD values obtained with cells prior to normalizing the data to % negative control (cells without added energy source).

[8] = Homo sapiens, HL-60, read-out: HL-60 Cell Responses to Selected Compounds from PM1 and PM2

Compound: CCSCCC(N)C(=O)O (racemic) [DL-ethionine]
- suitability as sulfur source (growth, purple color) [1]: not suitable

Compound: CSCCC(NC(C)=O)C(=O)O (racemic) [N-acetyl-DL-methionine]
- suitability as sulfur source (growth, purple color) [1]: positive

Compound: CSCCC(NC(=O)CN)C(=O)O (racemic) [glycyl-DL-methionine]
- suitability as sulfur source (growth, purple color) [1]: positive

Compound: NCCO [2-amino ethanol]
- carbon source utilization [2]: −
- suitability as nitrogen source (growth, purple color) [3]: not suitable

Compound: Nc1ncnc2c1ncn2[C@@H]1O[C@H](CO)[C@@H](O)[C@H]1O [Adenosine]
- carbon source utilization [2]: +
- suitability as nitrogen source (growth, purple color) [3]: not suitable

Compound: C[C@@H](N)C(=O)O [D-alanine]
- carbon source utilization [2]: +
- suitability as nitrogen source (growth, purple color) [3]: positive

Compound: N[C@H](CC(=O)O)C(=O)O [D-aspartic acid]
- carbon source utilization [2]: −
- suitability as nitrogen source (growth, purple color) [3]: not suitable

Compound: N[C@H](CO)C(=O)O [D-serine]
- carbon source utilization [2]: + and −
- suitability as nitrogen source (growth, purple color) [3]: not suitable

Compound: NC(=O)[C@@H](O)[C@@H](O)[C@H](O)[C@@H](O)C=O [Glucuronamide]
- carbon source utilization [2]: +
- suitability as nitrogen source (growth, purple color) [3]: not suitable

Compound: NCC(=O)N[C@@H](CCC(=O)O)C(=O)O [Glycyl-L-glutamic acid] (H-Gly-Glu-OH)
- carbon source utilization [2]: +
- suitability as nitrogen source (growth, purple color) [3]: positive

Compound: C[C@H](N)C(=O)O [L-alanine]
- carbon source utilization [2]: +
- suitability as nitrogen source (growth, purple color) [3]: not suitable

Compound: C[C@H](N)C(=O)NCC(=O)O [L-alanyl-glycine] (H-Ala-Gly-OH)
- carbon source utilization [2]: +
- suitability as nitrogen source (growth, purple color) [3]: positive

Compound: N=C(N)NCCC[C@H](N)C(=O)O [L-arginine]
- activity at 30 µM [4]: 106%
- activity at 100 µM [4]: 103%
- activity at 330 µM [4]: 122%
- activity at 1000 µM [4]: 126%
- activity at 3300 µM [4]: 123%
- activity at 10000 µM [4]: 132%
- activity at 15000 µM [4]: 119%
- activity at 20000 µM [4]: 93.4%
- activity at 30 µM [5]: 124%
- activity at 100 µM [5]: 118%
- activity at 330 µM [5]: 114%
- activity at 1000 µM [5]: 109%
- activity at 3300 µM [5]: 115%
- activity at 10000 µM [5]: 132%
- activity at 15000 µM [5]: 140%
- activity at 20000 µM [5]: 126%
- suitability as nitrogen source (growth, purple color) [3]: positive
- activity at 30 µM [6]: 127%
- activity at 100 µM [6]: 144%
- activity at 330 µM [6]: 165%
- activity at 1000 µM [6]: 142%
- activity at 3300 µM [6]: 154%
- activity at 10000 µM [6]: 119%
- activity at 15000 µM [6]: 90.8%
- activity at 20000 µM [6]: 60.3%
- response in words [7]: strongly utilized, even at very low concentrations
- activity at 30 µM [7, 8]: 134%
- activity at 100 µM [7, 8]: 138%
- activity at 330 µM [7, 8]: 131%
- activity at 1000 µM [7, 8]: 138%
- activity at 3300 µM [7, 8]: 132%
- activity at 10000 µM [7, 8]: 128%
- activity at 15000 µM [7, 8]: 108%
- activity at 20000 µM [7, 8]: 109%

Compound: N[C@@H](CC(=O)O)C(=O)O [L-aspartic acid]
- carbon source utilization [2]: + and −
- suitability as nitrogen source (growth, purple color) [3]: positive

Compound: N[C@@H](CCC(=O)O)C(=O)O [L-glutamic acid]
- carbon source utilization [2]: + and −
- carbon source utilization (text) [2]: negative
- suitability as nitrogen source (growth, purple color) [3]: positive

Compound: O=C(O)[C@@H]1CCCN1 [L-proline]
- carbon source utilization [2]: + and −
- carbon source utilization (text) [2]: negative
- suitability as nitrogen source (growth, purple color) [3]: positive

Compound: N[C@@H](CO)C(=O)O [L-serine]
- carbon source utilization [2]: +
- suitability as nitrogen source (growth, purple color) [3]: not suitable

Compound: C[C@@H](O)[C@H](N)C(=O)O [L-threonine]
- carbon source utilization [2]: + and −
- carbon source utilization (text) [2]: negative
- suitability as nitrogen source (growth, purple color) [3]: not suitable

Compound: CC(=O)N[C@H]1C(O)O[C@H](CO)[C@@H](O)[C@@H]1O (stereo partly drawn) [N-acetyl-D-glucosamine]
- carbon source utilization [2]: +
- suitability as nitrogen source (growth, purple color) [3]: positive

Compound: CC(=O)N[C@H]1[C@@H](O)[C@H](O)[C@@H](CO)O[C@H]1O [N-acetyl-β-D-mannosamine]
- carbon source utilization [2]: + and −
- suitability as nitrogen source (growth, purple color) [3]: not suitable

Compound: NCCc1ccccc1 [Phenylethyl amine]
- carbon source utilization [2]: −
- suitability as nitrogen source (growth, purple color) [3]: not suitable

Compound: NCCc1ccc(O)cc1 [Tyramine]
- carbon source utilization [2]: −
- suitability as nitrogen source (growth, purple color) [3]: not suitable

Compound: O=c1[nH]c(=O)c2[nH]c(=O)[nH]c2[nH]1 [uric acid]
- suitability as nitrogen source (growth, purple color) [3]: not suitable

Compound: O=C(O)/C=C/c1c[nH]cn1 [urocanic acid]
- suitability as nitrogen source (growth, purple color) [3]: not suitable

Compound: O=c1[nH]c(=O)c2[nH]cnc2[nH]1 [xanthine]
- suitability as nitrogen source (growth, purple color) [3]: not suitable

Compound: O=c1[nH]c(=O)c2ncn([C@@H]3O[C@H](CO)[C@@H](O)[C@H]3O)c2[nH]1 [xanthosine]
- suitability as nitrogen source (growth, purple color) [3]: not suitable

Compound: NCCCCC(=O)O [δ-amino-n-valeric acid]
- suitability as nitrogen source (growth, purple color) [3]: positive

Compound: NCCCCCC(=O)O [ε-amino-n-caproic acid]
- suitability as nitrogen source (growth, purple color) [3]: not suitable
